Experimental data published in patent US20080220416A1, “Compositions for Inhibiting Cell Growth and Inducing Apoptosis in Cancer Cells and Methods of Use Thereof” (THE BOARD OF TRUSTEES OF THE UNIVERSITY OF ILLINOI, priority 2004, published 2008).
Square brackets hold non-standard residues; d marks the D form. Peptide text beside a SMILES is read from it. * marks the point of attachment. Nle = CCCC[C@H](N)C(=O)O; Cbz = O=C(OCc1ccccc1)*

How the values were obtained:
[1] = system: MDA-MB231 breast cancer cells; experiment: Cytotoxicity and growth assay in MDA-MB231 breast cancer cells (SRB, TCA-precipitated protein); type: cell-based, human
Procedure: An invasive, estrogen-independent breast cancer cell line that spontaneously expresses high levels of Notch-1 and -4, MDA-MB231, and normal human breast cells were used to investigate whether inhibition of Notch activation or expression affects the biological behavior of breast cancer cells. Human Mammary Epithelial Cells (HMEC) were purchased from Clonetics and cultured in mammary epithelial cell basal medium (MEBM) supplemented with 52 μg/ml Bovine Pituitary Extract […], […] human recombinant Epidermal Growth Factor (hEGF), 5 μg/ml insulin, 0.5 μg/ml Hydrocortisone, 50 μg/ml Gentamicin and 50 μg/ml Amphotericin-B. MDA-MB231 (ATCC, Rockville, Md.) were cultured in DMEM medium with 10% FBS. Notch expression in HMEC and MDA-MB231 cells was silenced using highly specific RNAi. Double-stranded synthetic 21-mer RNA oligonucleotides (siRNAs) were purchased from Dharmacon (Lafayette, Colo.). […] Sequence specificity was determined by BLAST searches which determined the uniqueness of the sequences. Transfection of siRNAs was performed using Oligofectamine (Invitrogen) as recommended by the siRNA manufacturer (Dharmacon). Transfection efficiency was optimized and followed on parallel wells using DNA double stranded oligos of identical sequence to the siRNAs, labeled with biotin on one strand. Transfected cells were identified by Streptavidin-horseradish peroxidase staining (Vectastain) and counted. Transfection efficiencies around 80% were routinely obtained.
Cytotoxicity and growth of transfected cells were estimated by a standard assay used for cancer drug screening, through the total amount of TCA-precipitated cell proteins after drug treatment (Likhitwitayawuid, K et al., 1993, J Nat Prod 56:30-38): 200 μl of cell suspension (10^5 cells/ml) were added to each well in a 96-well plate. After incubation at, 37° C., in 5% CO2 (30 minutes to 72 hours depending on the time course chosen), 50 μl 50% trichloroacetic acid was added to each well. After incubation at 4° C. for 1 hour, precipitates were washed with water 4-5 times and air dried overnight. One hundred μl of SRB solution (0.4% sulforhodamine B in 1% acetic acid, filtered before use) was added to each well for 30 minutes. Wells were washed with 1% acetic acid 4-5 times and air dried. Two hundred μl 10 mM Tris base was added to each well. Plates were shaken for 5-10 minutes and OD at 490 nm (OD490) was recorded via ELISA reader. To assay matrix invasion, 300 μl of cell suspension (10^6 cells/mL in serum-free medium) were added to invasion inserts (BioCoat Matrigel Invasion Chambers, Becton Dickinson, Bedford, Mass.) and incubated for 22 hours at 37° C., 5% CO2. […] After removal of the non-invading cells from the interior of the inserts, stained invading cells were lysed in 10% acetic acid and OD595 was determined. […]

cyclins A and B1 = experiment: Cyclin expression in MDA-MB231 cells (ribonuclease protection assay, Western blot); type: cell-based, human
Procedure: To explore the effects on Notch-1 siRNA on the expression of cyclins, the main regulators of cell cycle progression, ribonuclease protection assays and Western blots on Notch-1 siRNA-treated cells were performed. Transfection of the MBA-MD231 cells with Notch-1 siRNA (5′-AAGTGTCTGAGGCCAGCAAGA-3′) (SEQ ID NO. 1) or control siRNA (5′-AACAGTCGCGTTTGCGACTGG-3′) (SEQ ID NO: 5), was performed as described above. Ribonuclease protection assays were performed by first preparing total RNA using a RNeasy Mini kit (QIAGEN Cat. #74104) according to the manufacturer's instructions. The multi-probe template set hCYC-1 (containing DNA templates for cyclin A, cyclin B, cyclin C, cyclin D1, cyclin D2, cyclin D3, cyclin A1 L32 and GAPDH) was purchased from BD Biosciences (Cat. # 556189). The DNA template was used to synthesize a [^32P]UTP (10 mCi/ml, Amersham Bioscience) labelled probe in the presence of a GACU pool using a […] RNA-polymerase (BD Bioscience RiboQuant RPA starter package, Cat. # 556144). Hybridization with 20 μg of each target RNA was performed at 56° C. overnight, followed by digestion with RNAse A and T1 according to the BD Bioscience standard protocol. After proteinase K treatment, samples were precipitated, loaded on a 4.75% acrylamide-urea gel, and run at 55 W with 0.5×TBE. Gels were dried in the gel dryer under vacuum for 2 h at 90° C. Then gels were exposed on Kodak film (Eastman Kodak, Rochester, N.Y.) with intensifying screens and developed at −70° C. Western blots were performed as described above. […] Western blot data confirmed these findings. […] CDK1 levels were only modestly affected. Cyclin A/cdk2 phosphorylates E2F-1/DP complexes at the end of S-phase, inactivating them. This prevents a re-initiation of DNA replication and assures that the genome is replicated only once at each S phase. Failure of cyclin A/cdk2 to inactivate E2F results in inappropriately persistent E2F activity, which may lead to apoptosis. E2F-1 is known to upregulate its own transcription. […]

Row | Compound | proliferation ([1]; MDA-MB231, siRNA transfection) | cyclin B1 protein (Western blot) (cyclins A and B1) | cyclin mRNA expression (ribonuclease protection assay) (cyclins A and B1) | IC50 ([1]; Homo sapiens, MDA-MB-231, MDA-MB231 (p53-mutant, ERα-negative), 48 h, read-out: IC50, cell growth inhibition) [µM] | cyclin A and cyclin B protein (Western blot) (cyclins A and B1; 0.5 or 1 μM, 24 h)
1 | 5′-AAGTGTCTGAGGCCAGCAAGA-3′ [Notch-1 siRNA] | inhibits proliferation of MDA-MB231 breast cancer cells | striking decrease in the steady state levels of cyclin B1 at 48 hours | decreases the expression of mRNAs for cyclins B1 and A, but not C, D, or A1 |  | 
2 | CCCC[C@@H](C=O)NC(=O)[C@H](CC(C)C)NC(=O)[C@H](CC(C)C)NC(=O)OCc1ccccc1 [z-Leu-Leu-Nle-CHO, N-benzyloxycarbonyl-leucyl-leucyl-norleucinal] (Cbz-Leu-Leu-[Nle]-aldehyde) |  |  |  | 1.3 | dramatically reduced the levels of cyclin A protein at 0.5 μM, whereas cyclin B was decreased at 1 μM
